Article PMC5137160, “Optical imaging of MMP-12 active form in inflammation and aneurysm” (Scientific Reports, 2016)

Tests used:
MMP-12 [1] = tested on: MMP-12; design: method as in PMID 21212406; conditions: high fat-fed apoE-/- mice ref 3; cited from earlier work
hMMP-2 = biological target: T1, hMMP-2 (Homo sapiens, UniProt P08253); test: MMP inhibition assay (Ki); type: biochemical
T1 construct: purchased R&D Systems (Minneapolis, MN)
T1 sequence (P08253 110-660): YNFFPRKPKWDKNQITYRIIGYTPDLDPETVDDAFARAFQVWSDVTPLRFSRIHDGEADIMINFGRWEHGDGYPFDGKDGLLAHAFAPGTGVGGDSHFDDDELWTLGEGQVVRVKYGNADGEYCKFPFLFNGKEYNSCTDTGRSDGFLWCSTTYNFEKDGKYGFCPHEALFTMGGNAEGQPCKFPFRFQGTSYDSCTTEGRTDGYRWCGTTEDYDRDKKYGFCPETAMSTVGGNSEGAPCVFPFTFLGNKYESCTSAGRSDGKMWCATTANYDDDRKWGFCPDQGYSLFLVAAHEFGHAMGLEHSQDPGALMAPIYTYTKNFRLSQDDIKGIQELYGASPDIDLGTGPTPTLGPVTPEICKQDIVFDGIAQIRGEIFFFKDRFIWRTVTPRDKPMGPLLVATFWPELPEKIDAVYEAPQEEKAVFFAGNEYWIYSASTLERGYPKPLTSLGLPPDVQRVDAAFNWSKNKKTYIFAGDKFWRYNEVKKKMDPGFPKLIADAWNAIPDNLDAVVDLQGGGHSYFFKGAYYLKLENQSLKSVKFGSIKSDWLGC
Method: (§1) Human MMP-8, -9, -12 and -13 were produced in the laboratory. Other MMPs were purchased from R&D Systems (Minneapolis, MN). MMP inhibition assays were carried out as previously described. Pro-MMPs were pre-activated by p-aminophenylmercuric acetate following the method described by R&D Systems. Titration experiments were carried out to determine active enzyme concentration for each MMP prior to the assay. For each probe, the percentage of inhibition was determined from five different concentrations in triplicates, chosen to reach a range of 20–80% inhibition. Ki values were determined using the method proposed by Horovitz and Leviski[45].

hMMP-13 = biological target: T2, hMMP-13 (Homo sapiens, UniProt P45452); test: MMP inhibition assay (Ki); type: biochemical
T2 construct: made in house
Method: as §1

hMMP-14 = biological target: T3, hMMP-14 (Homo sapiens, UniProt P50281); test: MMP inhibition assay (Ki); type: biochemical
T3 construct: purchased R&D Systems (Minneapolis, MN)
Method: as §1

hMMP-1 = biological target: T4, hMMP-1 (Homo sapiens, UniProt P03956); test: MMP inhibition assay (Ki); type: biochemical
T4 construct: purchased R&D Systems (Minneapolis, MN)
T4 sequence (P03956 100-469): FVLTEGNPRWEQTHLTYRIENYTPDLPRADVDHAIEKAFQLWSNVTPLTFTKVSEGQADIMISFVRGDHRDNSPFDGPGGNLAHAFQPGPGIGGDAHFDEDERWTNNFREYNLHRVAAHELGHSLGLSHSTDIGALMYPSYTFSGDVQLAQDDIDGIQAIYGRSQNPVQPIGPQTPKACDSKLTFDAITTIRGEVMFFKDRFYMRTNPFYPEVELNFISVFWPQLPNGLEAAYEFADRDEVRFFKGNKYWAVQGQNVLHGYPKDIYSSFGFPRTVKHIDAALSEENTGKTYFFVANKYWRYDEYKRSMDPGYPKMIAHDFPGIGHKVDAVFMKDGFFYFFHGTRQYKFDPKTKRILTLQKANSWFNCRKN
Method: as §1

hMMP-9 = biological target: T5, hMMP-9 (Homo sapiens, UniProt P14780); test: MMP inhibition assay (Ki); type: biochemical
T5 construct: made in house
Method: as §1

hMMP-8 = biological target: T6, hMMP-8 (Homo sapiens, UniProt P22894); test: MMP inhibition assay (Ki); type: biochemical
T6 construct: made in house
Method: as §1

hMMP-7 = biological target: T7, hMMP-7 (Homo sapiens, UniProt P09237); test: MMP inhibition assay (Ki); type: biochemical
T7 construct: purchased R&D Systems (Minneapolis, MN)
T7 sequence (P09237 95-267): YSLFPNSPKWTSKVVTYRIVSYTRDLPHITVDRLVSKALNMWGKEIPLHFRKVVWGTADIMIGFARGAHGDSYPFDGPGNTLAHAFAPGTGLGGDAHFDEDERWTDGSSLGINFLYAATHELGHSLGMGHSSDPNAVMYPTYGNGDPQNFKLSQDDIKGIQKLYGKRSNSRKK
Method: as §1

hMMP-10 = biological target: T8, hMMP-10 (Homo sapiens, UniProt P09238); test: MMP inhibition assay (Ki); type: biochemical
T8 construct: purchased R&D Systems (Minneapolis, MN)
Method: as §1

hMMP-3 = biological target: T9, hMMP-3 (Homo sapiens, UniProt P08254); test: MMP inhibition assay (Ki); type: biochemical
T9 construct: purchased R&D Systems (Minneapolis, MN)
Method: as §1

ADAMTS-5 = biological target: T10, ADAMTS-5 (Homo sapiens, UniProt Q9UNA0); test: Metalloprotease inhibition assay (Ki); type: biochemical
T10 sequence (Q9UNA0 262-930): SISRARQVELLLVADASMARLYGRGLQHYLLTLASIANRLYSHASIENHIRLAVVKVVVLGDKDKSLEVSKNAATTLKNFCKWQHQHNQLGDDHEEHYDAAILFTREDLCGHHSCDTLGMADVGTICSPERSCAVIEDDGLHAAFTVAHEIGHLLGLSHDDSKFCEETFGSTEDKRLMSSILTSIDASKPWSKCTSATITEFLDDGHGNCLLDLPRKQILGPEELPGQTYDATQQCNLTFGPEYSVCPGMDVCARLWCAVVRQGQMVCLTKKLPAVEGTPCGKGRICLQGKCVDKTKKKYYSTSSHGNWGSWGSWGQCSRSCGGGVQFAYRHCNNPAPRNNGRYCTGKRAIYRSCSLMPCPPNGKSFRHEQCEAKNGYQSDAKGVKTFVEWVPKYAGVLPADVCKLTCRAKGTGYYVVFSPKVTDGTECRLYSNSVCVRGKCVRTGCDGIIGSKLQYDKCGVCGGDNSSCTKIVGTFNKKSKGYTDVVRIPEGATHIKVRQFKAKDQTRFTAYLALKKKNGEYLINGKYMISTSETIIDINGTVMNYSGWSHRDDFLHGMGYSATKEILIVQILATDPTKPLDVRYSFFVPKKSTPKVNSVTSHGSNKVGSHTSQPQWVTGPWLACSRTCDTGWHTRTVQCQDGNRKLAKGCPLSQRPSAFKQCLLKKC

hMMP-12 = test: MMP inhibition assay (Ki); type: biochemical, human
Method: as §1

TACE = TACE (Homo sapiens, UniProt P78536); test: Metalloprotease inhibition assay (Ki); type: biochemical
MMP-12 [2] = biological target: T11, MMP-12 (Mus musculus, UniProt P34960); test: Co-immunostaining of carotid artery sections with probe, fluorescence microscopy; design: species or system mice
T11 construct: from tissue; host or cells: CaCl2-induced aneurysmal left carotid artery of apoE-deficient mice (in vivo imaging and cryostat sections)
Method: Hematoxylin and eosin (H&E) staining and immunostaining of tissues were performed according to standard protocols on 5-μm-thick cryostat sections. For immunostaining, primary antibodies included anti-MMP-12 (sc-30072, Santa Cruz Biotechnology, Dallas, TX), anti-CD68 (AbD serotec, Raleigh, NC), anti-F4/80 (Cedarlane, Burlington, NC) and anti-CD31 (BD Pharmingen, San Jose, CA). Isotype-matched antibodies were used as controls. For co-immunostaining, tissue sections were fixed with acetone, and stained with the antibody followed by probe 2. Nuclei were stained with DAPI using ProLong® Gold Antifade Mountant with DAPI (Molecular Probes, Eugene, OR). The slides were photographed using a Spot RT3 camera (Diagnostic Instruments, Sterling Heights, MI) and a Zeiss Axiophot fluorescence microscope (Carl Zeiss Microscopy GmbH, Jena, Germany).

T5 sequence (P14780 94-707): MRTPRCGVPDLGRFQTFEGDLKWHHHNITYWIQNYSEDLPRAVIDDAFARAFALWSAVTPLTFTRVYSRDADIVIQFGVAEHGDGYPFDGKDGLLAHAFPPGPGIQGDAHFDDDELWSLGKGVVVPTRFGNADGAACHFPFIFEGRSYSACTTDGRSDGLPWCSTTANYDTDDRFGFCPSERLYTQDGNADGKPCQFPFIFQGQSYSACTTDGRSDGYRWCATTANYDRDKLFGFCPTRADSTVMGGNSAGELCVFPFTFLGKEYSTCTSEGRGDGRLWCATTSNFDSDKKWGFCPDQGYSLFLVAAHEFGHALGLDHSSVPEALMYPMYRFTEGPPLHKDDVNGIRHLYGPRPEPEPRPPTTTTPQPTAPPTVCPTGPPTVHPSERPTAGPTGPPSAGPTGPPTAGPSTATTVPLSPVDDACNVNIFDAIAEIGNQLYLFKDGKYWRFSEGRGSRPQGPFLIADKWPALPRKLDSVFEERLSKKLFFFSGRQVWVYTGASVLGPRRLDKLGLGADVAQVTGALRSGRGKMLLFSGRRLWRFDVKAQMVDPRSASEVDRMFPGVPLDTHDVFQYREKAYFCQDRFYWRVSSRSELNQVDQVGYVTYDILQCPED
Sequence of TACE (P78536 215-824): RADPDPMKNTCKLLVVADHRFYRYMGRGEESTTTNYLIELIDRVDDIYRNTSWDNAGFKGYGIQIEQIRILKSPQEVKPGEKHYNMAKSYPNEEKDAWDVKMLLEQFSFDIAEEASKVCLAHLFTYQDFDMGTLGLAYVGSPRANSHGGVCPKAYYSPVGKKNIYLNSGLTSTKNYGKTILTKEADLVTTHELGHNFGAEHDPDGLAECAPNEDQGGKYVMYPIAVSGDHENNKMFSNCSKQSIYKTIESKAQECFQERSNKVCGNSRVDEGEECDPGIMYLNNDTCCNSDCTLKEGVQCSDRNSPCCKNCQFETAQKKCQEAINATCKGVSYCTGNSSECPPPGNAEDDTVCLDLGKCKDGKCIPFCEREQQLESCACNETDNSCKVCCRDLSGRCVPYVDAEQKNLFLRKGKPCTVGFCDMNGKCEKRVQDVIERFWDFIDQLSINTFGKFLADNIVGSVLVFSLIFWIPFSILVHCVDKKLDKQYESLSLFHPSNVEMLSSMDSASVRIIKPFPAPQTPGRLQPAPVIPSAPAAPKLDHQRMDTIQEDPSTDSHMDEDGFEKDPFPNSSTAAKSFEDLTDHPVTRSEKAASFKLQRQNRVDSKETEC
T9 sequence (P08254 100-477): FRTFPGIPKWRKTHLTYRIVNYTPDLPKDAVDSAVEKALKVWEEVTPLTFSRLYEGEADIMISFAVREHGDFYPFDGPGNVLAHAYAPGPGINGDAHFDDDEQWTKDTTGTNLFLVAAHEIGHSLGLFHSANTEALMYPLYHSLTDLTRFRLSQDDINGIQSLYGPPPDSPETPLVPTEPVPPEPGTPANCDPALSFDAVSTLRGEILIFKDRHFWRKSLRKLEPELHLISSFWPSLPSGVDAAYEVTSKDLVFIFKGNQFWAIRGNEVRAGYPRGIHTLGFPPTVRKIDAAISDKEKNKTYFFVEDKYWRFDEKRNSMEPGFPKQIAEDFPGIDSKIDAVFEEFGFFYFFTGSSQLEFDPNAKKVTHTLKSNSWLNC
T6 sequence (P22894 101-467): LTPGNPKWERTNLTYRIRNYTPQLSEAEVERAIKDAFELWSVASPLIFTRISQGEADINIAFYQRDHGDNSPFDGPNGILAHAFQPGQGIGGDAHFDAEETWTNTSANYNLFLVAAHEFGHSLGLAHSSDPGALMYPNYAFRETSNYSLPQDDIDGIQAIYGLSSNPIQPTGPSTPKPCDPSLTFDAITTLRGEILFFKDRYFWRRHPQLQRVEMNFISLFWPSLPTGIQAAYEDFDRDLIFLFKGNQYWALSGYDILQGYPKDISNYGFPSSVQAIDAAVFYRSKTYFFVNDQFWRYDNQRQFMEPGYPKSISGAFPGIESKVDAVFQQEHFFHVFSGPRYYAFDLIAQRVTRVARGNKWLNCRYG
T8 sequence (P09238 99-476): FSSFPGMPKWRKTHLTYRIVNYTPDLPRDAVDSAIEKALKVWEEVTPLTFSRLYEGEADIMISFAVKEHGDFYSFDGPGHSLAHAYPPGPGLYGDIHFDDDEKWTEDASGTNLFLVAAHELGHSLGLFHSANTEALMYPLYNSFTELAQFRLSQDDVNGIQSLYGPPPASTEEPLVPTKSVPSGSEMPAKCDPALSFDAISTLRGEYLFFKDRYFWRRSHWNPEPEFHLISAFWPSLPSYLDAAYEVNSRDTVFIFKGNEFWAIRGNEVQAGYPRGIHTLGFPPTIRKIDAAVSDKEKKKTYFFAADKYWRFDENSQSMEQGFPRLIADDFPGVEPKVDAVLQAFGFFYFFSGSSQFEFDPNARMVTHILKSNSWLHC
T11 sequence (P34960 110-473): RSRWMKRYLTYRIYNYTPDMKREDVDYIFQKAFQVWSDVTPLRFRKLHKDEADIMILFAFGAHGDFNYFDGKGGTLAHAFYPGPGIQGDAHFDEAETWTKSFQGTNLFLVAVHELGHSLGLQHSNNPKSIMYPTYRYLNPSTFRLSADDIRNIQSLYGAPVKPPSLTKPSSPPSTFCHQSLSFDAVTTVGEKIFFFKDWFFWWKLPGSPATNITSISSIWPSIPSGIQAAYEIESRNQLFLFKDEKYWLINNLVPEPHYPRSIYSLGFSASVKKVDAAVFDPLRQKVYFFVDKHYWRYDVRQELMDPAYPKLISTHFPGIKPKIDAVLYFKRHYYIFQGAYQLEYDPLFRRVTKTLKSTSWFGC

## NC(=O)[C@H](CCC(=O)O)NC(=O)[C@H](CCC(=O)O)NC(=O)[C@H](Cc1cc(-c2ccc(-c3cccc(Cl)c3)cc2)no1)CP(=O)(O)c1ccc(Br)cc1 [RXP470.1, reference compound]
MMP-12 [1]
  effect on atherosclerotic plaque: reduces atherosclerotic plaque area and promotes a fibrous plaque phenotype
hMMP-2
  Ki: 52 ± 4 nM
hMMP-13
  Ki: 11 ± 10 nM
hMMP-14
  Ki: 150 ± 21 nM
hMMP-1
  Ki: > 10000 nM
hMMP-9
  Ki: 170 ± 50 nM
hMMP-8
  Ki: 120 ± 40 nM
hMMP-7
  Ki: 518 ± 40 nM
hMMP-10
  Ki: 17 ± 20 nM
hMMP-3
  Ki: 80 ± 2 nM
ADAMTS-5
  Ki: 6100 ± 100 nM
hMMP-12
  Ki: 0.26 nM
TACE
  Ki: > 10000 nM

## CC[N+]1=C(/C=C/C=C/C=C2/N(CCCCCC(=O)NCCCOCCOCCOCCCNC(=O)[C@H](CCC(=O)O)NC(=O)[C@H](CCC(=O)O)NC(=O)[C@H](Cc3cc(-c4ccc(-c5cccc(Cl)c5)cc4)no3)CP(=O)(O)c3ccc(Br)cc3)c3ccc4c(S(=O)(=O)[O-])cc(S(=O)(=O)O)cc4c3C2(C)C)C(C)(C)c2c1ccc1c(S(=O)(=O)O)cc(S(=O)(=O)O)cc21 [probe 1]
hMMP-2
  Ki: 973 ± 63 nM
hMMP-13
  Ki: 74 ± 70 nM
hMMP-13; relative to RXP470.1
  loss of potency toward MMP-13 compared with RXP470.1: less than ten times
hMMP-14
  Ki: 1130 ± 61 nM
hMMP-1
  Ki: > 10000 nM
hMMP-9
  Ki: 4167 ± 41 nM
hMMP-8
  Ki: 2070 ± 22 nM
hMMP-7
  Ki: 1623 ± 13 nM
hMMP-10
  Ki: 71 ± 50 nM
hMMP-10; relative to RXP470.1
  loss of potency toward MMP-10 compared with RXP470.1: less than ten times
hMMP-3
  Ki: 31 ± 2 nM
ADAMTS-5
  Ki: 1490 ± 129 nM
hMMP-12
  Ki: 0.9 nM
TACE
  Ki: > 10000 nM

## CC[N+]1=C(/C=C/C=C2/N(CCCCCC(=O)NCCCOCCOCCOCCCNC(=O)[C@H](CCC(=O)O)NC(=O)[C@H](CCC(=O)O)NC(=O)[C@H](Cc3cc(-c4ccc(-c5cccc(Cl)c5)cc4)no3)CP(=O)(O)c3ccc(Br)cc3)c3ccc(S(=O)(=O)[O-])cc3C2(C)C)C(C)(C)c2cc(S(=O)(=O)O)ccc21 [probe 2]
MMP-12 [2]; aneurysmal carotid artery sections
  probe co-localization with F4/80 positive cells: co-localized
MMP-12 [2]; aneurysmal left carotid artery sections
  probe signal co-localization with MMP-12: partially co-localized
hMMP-2
  Ki: 1070 ± 18 nM
hMMP-13
  Ki: 136 ± 15 nM
hMMP-14
  Ki: 802 ± 58 nM
hMMP-1
  Ki: 7212 ± 66 nM
hMMP-9
  Ki: 8760 ± 50 nM
hMMP-9; factor relative to RXP470.1
  loss of potency (drop in affinity) toward MMP-9 compared with RXP470.1: 50
hMMP-8
  Ki: 1440 ± 35 nM
hMMP-7
  Ki: 1850 ± 71 nM
hMMP-3
  Ki: 188 ± 22 nM
ADAMTS-5
  Ki: > 10000 nM
hMMP-12
  Ki: 6.1 ± 0.1 nM
hMMP-12; relative to probe 1
  difference in potency towards MMP-12, factor relative to probe 1: 7
TACE
  Ki: > 10000 nM
